Laboratory results as given in US5747235A, “Silver halide light sensitive emulsion layer having enhanced photographic sensitivity” (Eastman Kodak Company, priority 1996, dated 1998).
Where a name gives a salt, the structure may show the parent alone.

Tests used:
[1] = fragmentation rate constant kfr by laser flash photolysis; assay type: physicochemical; settings: Table H; model compound, A and L replaced by alkyl
Text: The kinetics of the bond cleavage or fragmentation reaction can be measured by conventional laser flash photolysis. […] The specific experimental apparatus we used to measure fragmentation rate constants and radical oxidation potentials is described in detail below.
(b) Fragmentation Rate Constant Determination
These absorptions were used to determine the kinetics of the fragmentation reactions of the radical cations of the X-Y. Excitation of 9,10-dicyanoanthracene (DCA) in the presence of biphenyl and the X-Y donor, as described above, results in the formation of the DCA^.cndot.- and the X-Y^.cndot.+. By using a concentration of X-Y of ca. 10^-2 M, the X-Y^.cndot.+ can be formed within ca. 20 ns of the laser pulse. […] The monitoring wavelengths used were somewhat different for the different donors, but were mostly around 470-530 nm. […] Alternatively, when the decay rate of the X-Y^.cndot.+ was less than 10^6 s^-1, the solutions were purged with oxygen.
The experiments measuring the fragmentation rate constants were performed in acetonitrile with the addition of 20% water, so that all of the salts could be easily solubilized. Most experiments were performed at room temperature. […] When this happened, the fragmentation rate constants were measured as a function of temperature, and the rate constant at room temperature determined by extrapolation.

[2] = oxidation potential E1 by cyclic voltammetry; assay type: physicochemical; settings: for E1 (V) for XY moiety: Table H, model compound, A and L replaced by alkyl
Procedure: Oxidation potentials are well known and can be found, for example, in "Encyclopedia of Electrochemistry of the Elements", Organic Section, Volumes XI-XV, A. Bard and H. Lund (Editors) Marcel Dekker Inc., NY. (1984). E1 can be measured by the technique of cyclic voltammetry. In this technique, the electron donating compound is dissolved in a solution of 80%/20% by volume acetonitrile to water containing 0.1M lithium perchlorate. Oxygen is removed from the solution by passing nitrogen gas through the solution for 10 minutes prior to measurement. A glassy carbon disk is used for the working electrode, a platinum wire is used for the counter electrode, and a saturated calomel electrode (SCE) is used for the reference electrode. Measurement is conducted at 25° C. using a potential sweep rate of 0.1 V/sec. The oxidation potential vs. SCE is taken as the peak potential of the cyclic voltammetric wave.

[3] = Example 2: photographic speed and fog, 365 nm exposure, acids vs corresponding esters, emulsion T-1; set-up: Fog: unit not given here; settings: for Fog / S365: undyed; for S365: control=100
Procedure: This chemically sensitized emulsion was then used to prepare the experimental coating variations indicated in Table I. All of the experimental coating variations in Table I contained the hydroxybenzene 2,4-disulfocatechol (HB3) at a concentration of 13 mmole/mole Ag, added to the melt before the addition of any further addenda. The fragmentable electron donor compounds as indicated in Table I were added from an aqueous potassium bromide solution, or from a methanol solution, before additional water, gelatin, and surfactant were added to the emulsion melts.
(§1) For photographic evaluation, each of the coating strips was exposed for 0.1 sec to a 365 nm emission line of a Hg lamp filtered through a Kodak Wratten filter number 18A and a step wedge ranging in density from 0 to 4 density units in 0.2 density steps. The exposed film strips were developed for 6 min in Kodak Rapid X-ray Developer (KRX). S365, relative sensitivity at 365 nm, was evaluated at a density of 0.2 units above fog.
The coatings described in Table II all contain the hydroxybenzene, 2,4-disulfocatechol (HB3) at a concentration of 13 mmole/mole Ag, added to the melt before any further addenda.

[4] = oxidation potential E2 of radical X by laser flash photolysis; assay type: physicochemical; settings: Table H; model compound, A and L replaced by alkyl
Text: In this technique, the compound X-Y is oxidized by an electron transfer reaction initiated by a short laser pulse. The oxidized form of X-Y then undergoes the bond cleavage reaction to give the radical X^.cndot.. X^.cndot. is then allowed to interact with various electron acceptor compounds of known reduction potential. […] The experimental details are set forth more fully below. The oxidation potentials (E2) for radicals X^.cndot. for typical compounds useful in accordance with our invention are given in Table C. Where only limits on potentials could be determined, the following notation is used: <-0.90 V should be read as "more negative than -0.90 V" and >-0.40 V should be read as "less negative than -0.40 V".
(a) Oxidation Potential of Radical X.cndot.
The laser flash photolysis measurements were performed using a nanosecond pulsed excimer (Questek model 2620, 308 nm, ca. 20 ns, ca. 100 mJ) pumped dye laser (Lambda Physik model FL 3002). The laser dye was DPS (commercially available from Exciton Co.) in p-dioxane (410 nm, ca. 20 ns, ca. 10 mJ). The analyzing light source was a pulsed 150W xenon arc lamp (Osram XBO 150/W). The arc lamp power supply was a PRA model 302 and the pulser was a PRA model M-306. The pulser increased the light output by ca. 100 fold, for a time period of ca. 2-3 ms. The analyzing light was focussed through a small aperture (ca. 1.5 mm) in a cell holder designed to hold 1 cm^2 cuvettes. The laser and analyzing beams irradiated the cell from opposite directions and crossed at a narrow angle (ca. 15°). After leaving the cell, the analyzing light was collimated and focussed onto the slit (1 mm, 4 nm bandpass) of an ISA H-20 monochromator. The light was detected using 5 dynodes of a Hamamatsu model R446 photomultiplier. The output of the photomultiplier tube was terminated into 50 ohm, and captured using a Tektronix DSA-602 digital oscilloscope. The entire experiment is controlled from a personal computer.
The experiments were performed either in acetonitrile, or a mixture of 80% acetonitrile and 20% water. The first singlet excited state of a cyanoanthracene (A), which acted as the electron acceptor, was produced using the nanosecond laser pulse at 410 nm. […] Secondary electron transfer then occurred between B^.cndot.+ and the lower oxidation potential electron donor X-Y, to generate X-Y^.cndot.+ in high yield. For the investigations of the oxidation potentials of the radicals X^.cndot., typically the cyanoanthrancene concentration was ca. 2×10^-5 M to 10^-4 M the biphenyl concentration was ca. 0.1M. The concentration of the X-Y donor was ca. 10^-3 M. The rates of the electron transfer reactions are determined by the concentrations of the substrates. The concentrations used ensured that the A^.cndot.- and the X-Y^.cndot.+ were generated within 100 ns of the laser pulse. The radical ions could be observed directly by means of their visible absorption spectra. The kinetics of the photogenerated radical ions were monitored by observation of the changes in optical density at the appropriate wavelengths.
The reduction potential (Ered) of 9,10-dicyanoanthracene (DCA) is -0.91 V. In a typical experiment, DCA is excited and the initial photo-induced electron transfer from the biphenyl (B) to the DCA forms a DCA^.cndot.-, which is observed at its characteristic absorption maximum (λobs =705 nm), within ca. 20 ns of the laser pulse. Rapid secondary electron transfer occurs from X-Y to B^.cndot.+ to generate X-Y^.cndot.+, which fragments to give X^.cndot.. A growth in absorption is then observed at 705 nm with a time constant of ca. 1 microsecond, due to reduction of a second DCA by the X^.cndot.. The absorption signal with the microsecond growth time is equal to the size of the absorption signal formed within 20 ns.
If the oxidation potential of X^.cndot. is not sufficiently negative to reduce DCA, an estimate of its oxidation potential was obtained by using other cyanoanthracenes as acceptors. […]

[5] = Example 10: photographic sensitivity and fog, color format, blue sensitized emulsion T-2; settings: for Photographic Sensitivity SWR2B: control=100
Procedure: The hydroxybenzene, 2,4-disulfocatechcol (HB3) at a concentration of 13×10^-3 mole/mole Ag was added to the emulsion melt before the start of the chemical sensitization procedure. […] The fragmentable two-electron donors S-3, S-9, S-6, or S-8 were then added to the emulsion melt.
The melts were prepared for coating by adding additional water, deionized gelatin and coating surfactants. Coatings were prepared by combining the emulsion melts with a melt containing deionized gelatin and an aqueous dispersion of the cyan-forming color coupler CC-1 and coating the resulting mixture on acetate support. […] The structure of the color coupler CC-1 is given below: [drawing 120]
For photographic evaluation, each of the coating strips was exposed for 0.01 sec to a 3000K color temperature tungsten lamp filtered to give an effective color temperature of 5500K and further filtered through a Kodak Wratten filter number 2B, and a step wedge ranging in density from 0 to 4 density units in 0.20 density steps. This exposure gives light absorbed mainly by the blue sensitizing dye. The exposed film strips were developed for 31/4 minutes in Kodak C-41 color developer. SWR2B, relative sensitivity for this filtered exposure, was evaluated at a cyan density of 0.15 units above fog.

[6] = Example 5: photographic speed and fog, 365 nm exposure, fragmenting vs non-fragmenting one-electron donors, emulsion T-2; set-up: Fog: unit not given here; settings: for sensitivity and fog change: undyed T-2 emulsion
Procedure: as §1
An AgBrI tabular silver halide emulsion (Emulsion T-2) was prepared containing 4.05% total I distributed such that the central portion of the emulsion grains contained 1.5% I and the perimeter area contained substantially higher I, as described by Chang et. al., U.S. Pat. No. 5,314,793. […] This emulsion was precipitated using deionized gelatin. The emulsion was sulfur sensitized by adding 8.5×10^-6 mole 1,3-dicarboxymethyl-1,3-dimethyl-2-thiourea /mole Ag at 40° C.; the temperature was then raised to 60° C. at a rate of 5° C./3 min and the emulsions held for 20 min before cooling to 40° C. The chemically sensitized emulsion was then used to prepare coatings containing the fragmentable two-electron donor compounds. […] Where present, the blue sensitizing dye D-I or the red sensitizing dye D-II were added from methanol solution to the emulsion at 40° C. after the chemical sensitization and disulfocatechol addition. The fragmentable two-electron donor compounds were added to the emulsion at 40° C. and the coatings were prepared and tested as described in Example 1, except that the additional gelatin used to prepare the coatings described in Table III was deionized gelatin.
Where present, the sensitizing dye D-II was added from methanol solution to the emulsion at 40° C. after the chemical sensitization but before the addition of the one-electron donating compound. The coatings were tested for their response to a 365 nm exposure as described in Example 1. For this exposure, the relative sensitivity was set equal to 100 for the control coating with no one-electron donating compound added.

[7] = 0.044 x10^-3 mole/mole Ag, dye D-II 0.86 x10^-3
[8] = 0.044 x10^-3 mole/mole Ag, dye D-II 0.86 x10^-3, dyed control 69
[9] = 0.044 x10^-3 mole/mole Ag, no dye, no HB3
[10] = 0.044 x10^-3 mole/mole Ag, no dye, no HB3, control=100
[11] = 0.14 x10^-3 mole/mole Ag, dye D-II 0.86 x10^-3
[12] = 0.14 x10^-3 mole/mole Ag, dye D-II 0.86 x10^-3, dyed control 69
[13] = 0.14 x10^-3 mole/mole Ag, no dye, no HB3
[14] = 0.14 x10^-3 mole/mole Ag, no dye, no HB3, control=100

| Compound | kfr (s^-1) for XY moiety [1] | E1 (V) for XY moiety [2] [V] | E2 (V) for XY moiety [4] [V] | E1 (V) ([2]; Table V) | Fog [6, 7] | S365 [6, 8] | Fog [6, 9] | S365 [6, 10] | Fog [6, 11] | S365 [6, 12] | Fog [6, 13] | S365 [6, 14] | sensitivity and fog change [6] | other results |
| --- | --- | --- | --- | --- | --- | --- | --- | --- | --- | --- | --- | --- | --- | --- |
| CCSCCN(c1ccc(OC)cc1)C(C)C(=O)O (centres unmarked) [Compound S-1, sodium salt] | 1.1e+06 s⁻¹ | 0.22 | < -0.9 | – | – | – | – | – | – | – | – | – | – | E1 (V) ([2]; Table II): 0.35 V; Fog ([3]; 0.00022 x10^-3 mole/mole Ag): 0.06; S365 ([3]; 0.00022 x10^-3 mole/mole Ag): 107; Fog ([3]; 0.00070 x10^-3 mole/mole Ag): 0.28; S365 ([3]; 0.00070 x10^-3 mole/mole Ag): 89; Fog ([3]; 0.00220 x10^-3 mole/mole Ag): 0.82; speed and fog change ([3]; undyed T-1 emulsion): both speed and fog increases |
| CCSCCN(CC(=O)[O-])c1ccc(C)cc1.[Na+] [Compound S-6, N-(4-Methylphenyl)-N-(2-ethylthio-ethyl)glycine sodium salt] | – | – | – | – | – | – | – | – | – | – | – | – | – | E1 (V) ([2]; Table X): 0.45 V; Fog ([5]; 0.022 x10^-3 mol/mol Ag): 0.14; Photographic Sensitivity SWR2B ([5]; 0.022 x10^-3 mol/mol Ag): 120; Fog ([5]; 0.07 x10^-3 mol/mol Ag): 0.21; Photographic Sensitivity SWR2B ([5]; 0.07 x10^-3 mol/mol Ag): 126 |
| CCSCCN(CCSCC)c1ccc(CC(=O)O)cc1 [Compound S-17, Sodium 2-(4-N,N-bis(ethylthioethyl)aminophenyl)acetate] | ≈ 3 × 10^5 s^-1 | 0.57 | < -0.5 | 0.62 | 0.11 | 80 | 0.05 | 110 | 0.11 | 89 | 0.06 | 120 | increased the 365 nm sensitivity of the undyed emulsion | – |
| CCSCCNC(=O)CCN(CC)c1ccc(CC(=O)O)cc1 [Compound S-18] | ≈ 3 × 10^5 s^-1 | 0.57 | < -0.5 | 0.68 | 0.05 | 95 | 0.05 | 135 | 0.06 | 107 | 0.06 | 148 | increased the 365 nm sensitivity of the undyed emulsion | – |
